From patent publication US9629822B2, “Flavonoid based antiviral targets” (UNIVERSITY OF CENTRAL FLORIDA RESEARCH FOUNDATION, INC., priority 2012, dated 2017)
Where two headings read alike, the source gives them in different places.

What was measured:
[1] = tested on: mock transfected 293T HEK cells; experiment: PathDetect Elk1 luminescence in mock transfected (empty pcDNA3 vector) 293T HEK cells, off-target effect; assay type: cell-based, human; details: for activation at 10 µM: Homo sapiens, read-out: Effect(%) on mock cells with each drug at 10 μM
How it was run: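 HEK 293T cells were transiently transfected with PathDetect Elk1/luciferase and empty pcDNA3, then exposed to 10 μM compound in medium with 1% FBS and 1% DMSO for 20-24 h at 37 °C. BrightGlo luminescence was compared with the 1% DMSO control: % effect = 100%×(mock/DMSO) − 100%.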

[2] = 10 μM vs 1% DMSO control, Equation 1

Row | Compound | toxicity at 10 μM in HEK cells, in words ([1]; 10 μM) | Effect(%) on mock cells with each drug at 10 μM [1, 2] | melting point | activation at 10 µM [1, 2] | activation at 10 µM [1]
1 | COc1ccc(Br)cc1/C=C/C(=O)c1c(O)cccc1OCc1ccccc1 [Compound 8l, (E)-1-(2-(Benzyloxy)-6-hydroxyphenyl)-3-(5-bromo-2-methoxyphenyl)prop-2-en-1-one] | very toxic | Toxic |  |  | 
2 | COc1ccc(Br)cc1/C=C/C(=O)c1ccc2ccccc2c1O [Compound 8m, (E)-3-(5-bromo-2-methoxyphenyl)-1-(1-hydroxynaphthalen-2-yl)prop-2-en-1-one] |  | 35% | 117 to 127 °C | 35% | 
3 | COc1ccccc1-c1oc2ccccc2c(=O)c1O [Compound 9a, 3-Hydroxy-2-(2-methoxyphenyl)-4H-chromen-4-one] |  |  |  | -1% | 
4 | COc1ccc(Br)cc1-c1oc2ccccc2c(=O)c1O [Compound 9b, 2-(5-Bromo-2-methoxyphenyl)-3-hydroxy-4H-chromen-4-one] |  |  | 159 to 161 °C | -11% | 
5 | COc1ccc(Cl)cc1-c1oc2ccccc2c(=O)c1O [Compound 9h, 2-(5-chloro-2-methoxyphenyl)-3-hydroxy-4H-chromen-4-one] |  | 2% | 160 to 167 °C | 2% | 
6 | COc1ccccc1-c1cc(=O)c2c(O)cccc2o1 [Compound 12a, 5-Hydroxy-2-(2-methoxyphenyl)-4H-chromen-4-one] |  |  |  |  | 2%
7 | COc1ccc(Br)cc1-c1cc(=O)c2c(O)cccc2o1 [Compound 12b, 2-(5-Bromo-2-methoxyphenyl)-5-hydroxy-4H-chromen-4-one] |  |  | 175 to 180 °C | -16% | 
